By IC50 is commonly meant the midpoint of a concentration-inhibition curve. What is called inhibition is how much of the control response was suppressed. Higher therefore signals a response far below the control.

Data on ten molecules can be found in patent EP4667466A1, “PROTAC DEGRADERS OF MLLT1 AND/OR MLLT3” (priority 2024, dated 2025).

The subject of one assay is MV4-11 cells. In words: MV4-11 cellular proliferation assay, Assay Format A (CellTiter-Glo, 120 hours). The class given is cell-based. As to conditions: Homo sapiens, Assay method A, read-out: MV4-11 antiproliferative IC50. The protocol: An MV4-11 proliferation assay was used to test the ability of compounds to reduce cell viability.
After 120 hours of treatment, cells were incubated for 10 min at RT with the CellTiter-Glo (CTG) reagent (G7571, Promega). Measurement of the luminescence signal was performed on a microplate reader (Ensight, PerkinElmer). CTG reagent measures the amount of ATP, which is directly proportional to the number of cells, to determine the number of viable cells in culture.
The data were analysed as follows: Data normalization, N(x) = (x−〈cr〉)/(〈sr〉−〈cr〉) × 100 [formula] where x is the measured raw signal value of a well, (cr) is the median of the measured signal values for the Central Reference (DMSO) wells on a plate, (sr) is the median of the measured signal values for the Scale Reference (reference compound) wells on a plate. Curve fitting, S0 + (Sinf −S0)/(1 + (((AC50)/(10^c)))^n) [formula] where the experimental set-up assumes the Hill parameters in certain ranges: S0 ~ Central Reference (CR) from normalization (= Bottom), Sinf ~ Scale Reference (SR) from normalization (= Top), nHill ~ 1, AC50 ~ within the measured concentration range.
In general terms: ATP-based viability assays read luminescence as a measure of living cells.

The next assay addresses T1, MLLT1 (Homo sapiens, UniProt Q03111).
T1 construct: endogenous in cells; host or cells: MV4-11 (ATCC CRL-9591)
T1 sequence (Q03111 1-559): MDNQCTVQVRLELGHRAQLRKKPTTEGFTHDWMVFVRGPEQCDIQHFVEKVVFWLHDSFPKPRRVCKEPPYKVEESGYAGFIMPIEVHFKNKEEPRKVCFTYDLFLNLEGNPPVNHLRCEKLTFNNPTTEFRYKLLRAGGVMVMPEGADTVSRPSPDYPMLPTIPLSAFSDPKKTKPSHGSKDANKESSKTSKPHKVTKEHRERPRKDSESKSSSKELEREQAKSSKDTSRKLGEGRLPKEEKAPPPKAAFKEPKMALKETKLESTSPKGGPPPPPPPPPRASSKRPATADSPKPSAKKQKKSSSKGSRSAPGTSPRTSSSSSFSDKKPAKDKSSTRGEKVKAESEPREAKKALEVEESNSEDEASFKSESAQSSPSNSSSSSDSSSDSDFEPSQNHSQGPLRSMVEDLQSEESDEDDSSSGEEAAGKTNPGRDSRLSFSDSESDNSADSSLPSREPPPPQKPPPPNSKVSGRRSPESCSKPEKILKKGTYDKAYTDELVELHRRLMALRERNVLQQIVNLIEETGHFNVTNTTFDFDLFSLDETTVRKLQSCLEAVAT
In words: MLLT1 degradation assay (JESS automated chemiluminescent detection) in MV4-11 cells. Format: cell-based. As to conditions: 24h, with respect to DMSO control. Summed up:
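MV4-11 cells were treated with 1000, 100 or 10 nM compound (0.1% DMSO) for 24 h at 37 °C. Lysates (4 µg protein) were probed for MLLT1 and GAPDH by JESS capillary chemiluminescence. Degradation was calculated from band peak areas versus DMSO control and binned into categories A–D.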

As for `Cc1nn(CCCCNc2cccc3c2C(=O)N(C2CCC(=O)NC2=O)C3=O)c2cc(C(=O)Nc3cc4[nH]c([C@H]5CCCN5C)cc4cn3)ccc12` (stereo partly drawn) [Example 21, 1-(4-((2-(2,6-dioxopiperidin-3-yl)-1,3-dioxoisoindolin-4-yl)amino)butyl)-3-methyl-N-(2-((R)-1-methylpyrrolidin-2-yl)-1H-pyrrolo[3,2-c]pyridin-6-yl)-1H-indazole-6-carboxamide], the IC50 with MV4-11 cells was determined as 11 nM. On MLLT1, this molecule registered an inhibition at 0.01 µM of no less than 75%, an inhibition at 0.1 µM of no less than 75% and an inhibition at 1 µM of no less than 75%.

As for `Cc1nn(CCCCCCNc2cccc3c2C(=O)N(C2CCC(=O)NC2=O)C3=O)c2cc(C(=O)Nc3cc4[nH]c([C@H]5CCCN5C)cc4cn3)ccc12` (stereo partly drawn) [Example 22, 1-(6-{[2-(2,6-dioxopiperidin-3-yl)-1,3-dioxoisoindol-4-yl]amino}hexyl)-3-methyl-N-{2-[(2R)-1-methylpyrrolidin-2-yl]-1H-pyrrolo[3,2-c]pyridin-6-yl}indazole-6-carboxamide], the concentration for half-maximal inhibition (IC50) in the assay on MV4-11 cells came out at 8 nM. On MLLT1, the inhibition at 0.01 µM was no less than 75%, the inhibition at 0.1 µM was no less than 75% and the inhibition at 1 µM is no less than 75%.

Take `Cc1nn(CCCCCCC#Cc2cccc3c2CN(C2CCC(=O)NC2=O)C3=O)c2cc(C(=O)Nc3cc4[nH]c([C@H]5CCCN5C)cc4cn3)ccc12` (stereo partly drawn) [Example 45, 1-(8-(2-(2,6-dioxopiperidin-3-yl)-1-oxoisoindolin-4-yl)oct-7-yn-1-yl)-3-methyl-N-(2-((R)-1-methylpyrrolidin-2-yl)-1H-pyrrolo[3,2-c]pyridin-6-yl)-1H-indazole-6-carboxamide]: the IC50 with MV4-11 cells was found to be 10 nM. Further, on MLLT1, the inhibition at 0.01 µM is no less than 75%, the inhibition at 0.1 µM was no less than 75% and the inhibition at 1 µM is no less than 75%.

Regarding `Cc1nn(CCCCCCCC#Cc2cccc3c2CN(C2CCC(=O)NC2=O)C3=O)c2cc(C(=O)Nc3cc4[nH]c([C@H]5CCCN5C)cc4cn3)ccc12` (mixture of isomers) [Example 1, 1-(9-(2-(2,6-dioxopiperidin-3-yl)-1-oxoisoindolin-4-yl)non-8-yn-1-yl)-3-methyl-N-(2-((R)-1-methylpyrrolidin-2-yl)-1H-pyrrolo[3,2-c]pyridin-6-yl)-1H-indazole-6-carboxamide], the IC50 in the assay on MV4-11 cells turned out to be 4 nM. Also, at MLLT1, the inhibition at 0.01 µM was no less than 75%, the inhibition at 0.1 µM is no less than 75% and the inhibition at 1 µM is no less than 75%.

On to `Cc1nn(CCCCC#Cc2cccc3c2CN(C2CCC(=O)NC2=O)C3=O)c2cc(C(=O)Nc3cc4[nH]c([C@H]5CCCN5C)cc4cn3)ccc12` (stereo partly drawn) [Example 46, 1-(6-(2-(2,6-dioxopiperidin-3-yl)-1-oxoisoindolin-4-yl)hex-5-yn-1-yl)-3-methyl-N-(2-((R)-1-methylpyrrolidin-2-yl)-1H-pyrrolo[3.2-c]pyridin-6-yl)-1H-indazole-6-carboxamide], for which, in the assay with MV4-11 cells, the half-inhibitory concentration (IC50) was determined as 7 nM. At MLLT1, the inhibition at 0.01 µM is no less than 75%, the inhibition at 0.1 µM is no less than 75% and the inhibition at 1 µM lay in the range of 50 to 75%.

Regarding `Cc1nn(CCCC#Cc2cccc3c2CN(C2CCC(=O)NC2=O)C3=O)c2cc(C(=O)Nc3cc4[nH]c([C@H]5CCCN5C)cc4cn3)ccc12` (stereo partly drawn) [Example 32, 1-(5-(2-(2,6-dioxopiperidin-3-yl)-1-oxoisoindolin-4-yl)pent-4-yn-1-yl)-3-methyl-N-(2-((R)-1-methylpyrrolidin-2-yl)-1H-pyrrolo[3,2-c]pyridin-6-yl)-1H-indazole-6-carboxamide], the half-maximal inhibitory concentration (IC50) with MV4-11 cells is 15 nM. On MLLT1, this molecule gave an inhibition at 0.01 µM of 50 to 75%, an inhibition at 0.1 µM of no less than 75% and an inhibition at 1 µM of 50 to 75%.

Turning to `[2H]C([2H])([2H])N1CCC[C@@H]1c1cc2cnc(NC(=O)c3ccc4c(C)nn(CCCCCCCC#Cc5cccc6c5CN(C5CCC(=O)NC5=O)C6=O)c4c3)cc2[nH]1` (stereo partly drawn) [Example 44, 1-(9-(2-(2,6-dioxopiperidin-3-yl)-1-oxoisoindolin-4-yl)non-8-yn-1-yl)-3-methyl-N-(2-((R)-1-(methyl-d3)pyrrolidin-2-yl)-1H-pyrrolo[3,2-c]pyridin-6-yl)-1H-indazole-6-carboxamide], the IC50 with MV4-11 cells came to 5 nM. On MLLT1, this molecule registered an inhibition at 0.01 µM of 50 to 75%, an inhibition at 0.1 µM of no less than 75% and an inhibition at 1 µM of no less than 75%.

Take `Cc1nn(CCCCCC#Cc2cccc3c2CN(C2CCC(=O)NC2=O)C3=O)c2cc(C(=O)Nc3cc4[nH]c([C@H]5CCCN5C)cc4cn3)ccc12` (stereo partly drawn) [Example 30, 1-(7-(2-(2,6-dioxopiperidin-3-yl)-1-oxoisoindolin-4-yl)hept-6-yn-1-yl)-3-methyl-N-(2-((R)-1-methylpyrrolidin-2-yl)-1H-pyrrolo [3,2-c]pyridin-6-yl)-1H-indazole-6-carboxamide]: the IC50 in the assay on MV4-11 cells worked out at 6 nM. Further, at MLLT1, the inhibition at 0.01 µM was no less than 75%, the inhibition at 0.1 µM is no less than 75% and the inhibition at 1 µM was no less than 75%.

With `Cc1nn(CCOCCOCCNc2cccc3c2C(=O)N(C2CCC(=O)NC2=O)C3=O)c2cc(C(=O)Nc3cc4[nH]c([C@H]5CCCN5C)cc4cn3)ccc12` (stereo partly drawn) [Example 25, 1-(2-(2-(2-((2-(2,6-dioxopiperidin-3-yl)-1,3-dioxoisoindolin-4-yl)amino)ethoxy)ethoxy)ethyl)-3-methyl-N-(2-((R)-1-methylpyrrolidin-2-yl)-1H-pyrrolo[3,2-c]pyridin-6-yl)-1H-indazole-6-carboxamide], in the assay with MV4-11 cells, the concentration for half-maximal inhibition (IC50) was 11 nM. At MLLT1, this molecule yielded an inhibition at 0.1 µM of no less than 75% and an inhibition at 1 µM of no less than 75%.

Turning to `Cc1nn(CCCCCCCCNc2cccc3c2CN(C2CCC(=O)NC2=O)C3=O)c2cc(C(=O)Nc3cc4[nH]c([C@H]5CCCN5C)cc4cn3)ccc12` (stereo partly drawn) [Example 16, 1-(8-{[2-(2,6-dioxopiperidin-3-yl)-1-oxo-3H-isoindol-4-yl]amino}octyl)-3-methyl-N-{2-[(2R)-1-methylpyrrolidin-2-yl]-1H-pyrrolo[3,2-c]pyridin-6-yl}indazole-6-carboxamide], in the assay with MV4-11 cells, the IC50 turned out to be 9 nM. At MLLT1, this molecule registered an inhibition at 0.01 µM of no less than 75%, an inhibition at 0.1 µM of no less than 75% and an inhibition at 1 µM of no less than 75%.
